Drawing on ChEMBL document CHEMBL1139487, “Discovery of corticotropin releasing factor 2 receptor selective sauvagine analogues for treatment of skeletal muscle atrophy” (J Med Chem, 2005), this text covers EC50 for 4 compounds.

pEC50: −log10 of the molar value. Bounds are passed on as bounds.

Assay [1] addresses T1, Corticotropin-releasing factor receptor 1 (Mus musculus, UniProt P35347).
T1 sequence (P35347 whole entry): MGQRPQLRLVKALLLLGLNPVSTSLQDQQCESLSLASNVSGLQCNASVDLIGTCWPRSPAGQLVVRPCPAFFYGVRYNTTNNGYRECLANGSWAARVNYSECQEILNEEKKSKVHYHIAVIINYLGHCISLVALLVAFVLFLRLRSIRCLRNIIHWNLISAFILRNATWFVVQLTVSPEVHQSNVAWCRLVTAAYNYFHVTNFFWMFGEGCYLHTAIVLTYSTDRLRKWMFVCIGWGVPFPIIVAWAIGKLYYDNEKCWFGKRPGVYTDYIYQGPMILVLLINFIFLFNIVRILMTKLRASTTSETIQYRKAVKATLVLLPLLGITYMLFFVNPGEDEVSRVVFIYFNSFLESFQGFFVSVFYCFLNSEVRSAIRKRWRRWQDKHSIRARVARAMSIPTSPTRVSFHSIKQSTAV
The assay can be described thus: In vitro effective concentration for mouse corticotropin releasing factor 1 receptor.

Assay [2] addresses Corticotropin-releasing factor receptor 2 (Mus musculus, UniProt Q60748). The assay can be described thus: In vitro effective concentration for mouse corticotropin releasing factor 2 receptor.

Corticotropin-releasing factor receptor 2, sequence (Q60748 whole entry): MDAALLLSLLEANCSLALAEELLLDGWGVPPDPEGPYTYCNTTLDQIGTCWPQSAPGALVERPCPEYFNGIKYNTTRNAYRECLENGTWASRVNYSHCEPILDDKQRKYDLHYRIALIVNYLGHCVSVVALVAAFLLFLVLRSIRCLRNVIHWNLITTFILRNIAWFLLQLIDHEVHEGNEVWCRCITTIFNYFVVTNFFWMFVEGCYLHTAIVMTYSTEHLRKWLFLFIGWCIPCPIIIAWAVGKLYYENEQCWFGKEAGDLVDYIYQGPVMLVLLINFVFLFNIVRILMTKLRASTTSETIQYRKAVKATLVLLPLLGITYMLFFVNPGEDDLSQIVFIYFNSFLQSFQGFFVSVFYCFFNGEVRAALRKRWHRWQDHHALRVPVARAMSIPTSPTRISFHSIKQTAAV

Take `CC[C@H](C)[C@H](NC(=O)[C@@H](NC(=O)[C@H](CC(=O)O)NC(=O)[C@H](CC(C)C)NC(=O)[C@H](CC(C)C)NC(=O)[C@H](CC(C)C)NC(=O)[C@H](CCCNC(=N)N)NC(=O)[C@H](CC(N)=O)NC(=O)[C@H](CC(N)=O)NC(=O)[C@H](C)NC(=O)[C@H](C)NC(=O)[C@H](CCC(N)=O)NC(=O)[C@H](CCC(N)=O)NC(=O)[C@H](CCCCN)NC(=O)[C@H](CCC(=O)O)NC(=O)[C@H](CCCCN)NC(=O)[C@H](CCC(=O)O)NC(=O)[C@H](CCC(N)=O)NC(=O)[C@H](CCCCN)NC(=O)[C@H](CCC(=O)O)NC(=O)[C@@H](NC(=O)[C@H](CCC(=O)O)NC(=O)[C@@H](NC(=O)[C@H](CCSC)NC(=O)[C@H](CCCCN)NC(=O)[C@H](CCCNC(=N)N)NC(=O)[C@H](CC(C)C)NC(=O)[C@H](CC(C)C)NC(=O)[C@H](Cc1ccc(O)cc1)NC(=O)[C@H](CCC(N)=O)NC(=O)[C@@H]1CCCN1C(=O)[C@H](CC(C)C)NC(=O)[C@H](CC(=O)O)NC(=O)[C@@H](NC(=O)[C@H](CO)NC(=O)[C@@H](NC(=O)[C@@H]1CCCN1C(=O)[C@@H]1CCCN1C(=O)CNC(=O)[C@@H]1CCC(=O)N1)[C@@H](C)CC)[C@@H](C)CC)[C@@H](C)CC)[C@@H](C)CC)[C@@H](C)O)C(=O)O`: the pEC50 (commonly the EC50 on a negative log10 scale, so that one unit is a factor of ten) was 6.49 in assay [1] and 7.97 in assay [2].
Consider “H-IVLSLDVPIGLLQILLEQARARAAREQATTNARILARV-OH [HUMAN UROCORTIN 2]”, for which the pEC50 in assay [1] is less than 6.00; in assay [2], 8.37.
`CC[C@H](C)[C@H](NC(=O)[C@@H](NC(=O)[C@H](CC(=O)O)NC(=O)[C@H](CC(C)C)NC(=O)[C@H](CC(C)C)NC(=O)[C@H](CC(C)C)NC(=O)[C@H](CCCNC(=N)N)NC(=O)[C@H](CC(N)=O)NC(=O)[C@H](CC(N)=O)NC(=O)[C@H](C)NC(=O)[C@H](C)NC(=O)[C@H](CCC(N)=O)NC(=O)[C@H](CCC(N)=O)NC(=O)[C@H](CCCCN)NC(=O)[C@H](CCC(=O)O)NC(=O)[C@H](CCCCN)NC(=O)[C@H](CCC(=O)O)NC(=O)[C@H](CCC(N)=O)NC(=O)[C@H](CCCCN)NC(=O)[C@H](CCC(=O)O)NC(=O)[C@@H](NC(=O)[C@H](CCC(=O)O)NC(=O)[C@@H](NC(=O)[C@H](CCSC)NC(=O)[C@H](CCCCN)NC(=O)[C@H](CCCNC(=N)N)NC(=O)[C@H](CC(C)C)NC(=O)[C@H](CC(C)C)NC(=O)[C@@H](NC(=O)[C@H](Cc1ccccc1)NC(=O)[C@@H]1CCCN1C(=O)[C@H](CC(C)C)NC(=O)[C@H](CC(=O)O)NC(=O)[C@@H](NC(=O)[C@H](CO)NC(=O)[C@@H](NC(=O)[C@@H]1CCCN1C(=O)[C@@H]1CCCN1C(=O)CNC(=O)[C@@H]1CCC(=O)N1)[C@@H](C)CC)[C@@H](C)CC)C(C)C)[C@@H](C)CC)[C@@H](C)CC)[C@@H](C)O)C(=O)O`: the figures for the pEC50 in assay [1] and in assay [2] were 7.07 and 8.23, respectively.
With `CC[C@H](C)[C@H](NC(=O)[C@@H](NC(=O)[C@H](CC(=O)O)NC(=O)[C@H](CC(C)C)NC(=O)[C@H](CC(C)C)NC(=O)[C@H](CC(C)C)NC(=O)[C@H](CCCNC(=N)N)NC(=O)[C@H](CC(N)=O)NC(=O)[C@H](CC(N)=O)NC(=O)[C@H](C)NC(=O)[C@H](C)NC(=O)[C@H](CCC(N)=O)NC(=O)[C@H](CCC(N)=O)NC(=O)[C@H](CCCCN)NC(=O)[C@H](CCC(=O)O)NC(=O)[C@H](CCCCN)NC(=O)[C@H](CCC(=O)O)NC(=O)[C@H](CCC(N)=O)NC(=O)[C@H](CCCCN)NC(=O)[C@H](CCC(=O)O)NC(=O)[C@@H](NC(=O)[C@H](CCC(=O)O)NC(=O)[C@@H](NC(=O)[C@H](CCSC)NC(=O)[C@H](CCCCN)NC(=O)[C@H](CCCNC(=N)N)NC(=O)[C@H](CC(C)C)NC(=O)[C@H](CC(C)C)NC(=O)[C@H](CC(C)C)NC(=O)[C@H](Cc1ccc(O)cc1)NC(=O)[C@@H]1CCCN1C(=O)[C@H](CC(C)C)NC(=O)[C@H](CC(=O)O)NC(=O)[C@@H](NC(=O)[C@H](CO)NC(=O)[C@@H](NC(=O)[C@@H]1CCCN1C(=O)[C@@H]1CCCN1C(=O)CNC(=O)[C@@H]1CCC(=O)N1)[C@@H](C)CC)[C@@H](C)CC)[C@@H](C)CC)[C@@H](C)CC)[C@@H](C)O)C(=O)O`, the figures for the pEC50 in assay [1] and in assay [2] were 7.12 and 8.28, respectively.
